Where two headings read alike, the source gives them in different places. Each block holds one compound with its values, some of them ahead of it. Numbered stars: 1 amine (or outer) side, 2 acyl side, 3 side chain; on linkers, the order of the positions; unused ones are H or OH. Bridge positions count the residues as written; N and C are the ends. Square brackets hold non-standard residues; d marks the D form. Peptide text beside a SMILES is read from it. Trp(6-Cl) = N[C@@H](Cc1c[nH]c2cc(Cl)ccc12)C(=O)O; Phe(3-Ph) = N[C@@H](Cc1cccc(-c2ccccc2)c1)C(=O)O; Bip = N[C@@H](Cc1ccc(-c2ccccc2)cc1)C(=O)O; Phe(3-Cl) = N[C@@H](Cc1cccc(Cl)c1)C(=O)O; γGlu = O=C(O)[C@H](CCC(=O)[*:2])N[*:1]; NMeY = CN[C@@H](Cc1ccc(O)cc1)C(=O)O; NMeF = CN[C@@H](Cc1ccccc1)C(=O)O; hPhe = N[C@@H](CCc1ccccc1)C(=O)O; 3Pal = N[C@@H](Cc1cccnc1)C(=O)O; Ahp(2) = CCCCC[C@H](N)C(=O)O; Cba = N[C@@H](CC1CCC1)C(=O)O; Chg = N[C@H](C(=O)O)C1CCCCC1; NMeA = CN[C@@H](C)C(=O)O; βAla = NCCC(=O)O; Sar = CNCC(=O)O
Assays:
[1] = molecular target: T1, FOLR1 (Homo sapiens, UniProt P15328); assay: Peptide binding to FOLR1 (SPR, Biacore 8K); settings: FOLR1-Fc-Avi immobilized, 25° C., Langmuir 1:1 binding model
T1 construct: purchased AcroBiosystems F01-H82F9
Description: For analysis of peptide binding, a Biacore 8K instrument was used utilizing either a SA chip or a CAP chip. FOLR1-Fc-Avi (AcroBiosystems, F01-H82F9) was immobilized on the chip using streptavidin-biotin chemistry at 25° C. in PBS-P+ buffer (20 mM phosphate, 2.7 mM KCl, 137 mM NaCl, 0.05% Tween-20, pH 7.4) to a level of 500-2500 RU (dependent on the analyte molecular weight). A dilution series of peptides was prepared in this buffer with a final DMSO concentration of 1% with a top peptide concentration at 50 or 100 nM and 8 further 2-fold dilutions. The SPR analysis was run at 25° C. at a flow rate of 100 μL/min in PBS-P+ with 1% DMSO running buffer and with a 120 second association and 10,000 second dissociation using single cycle kinetics methodology. All data was analyzed using Biacore Insight Evaluation Software version 3.) Data was fitted using a Langmuir 1:1 binding model.
Kd values of peptides of the present disclosure are given in Table 8 below, where Kd 0 nM<A≤10 nM.

[2] = molecular target: T2, PSMA (Homo sapiens, UniProt Q04609); assay: Peptide binding to PSMA (SPR, Biacore 8K); settings: His-Avi-PSMA immobilized, 25° C., Langmuir 1:1 binding model
T2 construct: purchased AcroBiosystems PSA-H82Qb
Description: For analysis of peptide binding, a Biacore 8K instrument was used utilizing a SA chip. His-Avi-PSMA (AcroBiosystems, PSA-H82Qb) was immobilized on the chip using streptavidin-biotin chemistry at 25° C. in HBS-P+ buffer (10 mM HEPES, 150 mM NaCl, 0.05% Tween-20, pH 7.4) to a level of 800-2200 RU (dependent on the analyte molecular weight). A dilution series of peptides was prepared in this buffer with a final DMSO concentration of 1% with a top peptide concentration between 10-100 nM and 8 further 2-fold dilutions. The SPR analysis was run at 25° C. at a flow rate of 100 μL/min in HBS-P+ with 1% DMSO running buffer and with a 120 second association and 10,000 second dissociation using single cycle kinetics methodology. All data was analyzed using Biacore Insight Evaluation Software version 3. Data was fitted using a Langmuir 1:1 binding model.

[3] = molecular target: T3, Human Serum Albumin (HSA) (Homo sapiens, UniProt P02768); assay: HSA-HPLC plasma protein binding (immobilized human serum albumin-HPLC); format: in vitro ADME; settings: HSA-HPLC method, room temperature, estimated from gradient retention times, read-out: % Bound to HSA at r.t.
T3 construct: purchased ChiralPAK HSA HPLC column, 50×4 mm
From the text: • HSA-HPLC method (measurement of drug protein binding by immobilized human serum albumin-HPLC). A 13-minute HPLC (Thermo Vanquish Horizon with Diode Array Detector) gradient method was used to determine the HSA (Human Serum Albumin) binding of novel compounds using a chemically bonded protein stationary phase (ChiralPAK HSA HPLC column, 50×4 mm). The HSA binding values were derived from the gradient retention times that were converted to the logarithm of the equilibrium constant using data from a calibration set of molecules. The % bound to plasma values for the calibrator compounds were converted to the linear free energy values using the following equation: LogK=log[% PPB/(101−% PPB)]. The logarithmic value of the gradient retention times from the experiment were plotted against the linearized values of the percent bound to plasma. The slope and the intercept were used to convert the retention times to linear free energy values (LogK), from which the estimated % protein binding was calculated using the following equation: % Binding=[(101·10^LogK)/(1+10^LogK)]. Aqueous mobile phase (A) was 50 mM ammonium acetate solution, ph7.4 and the organic mobile phase (B) was 2-propanol. […] Chromatograms were recorded at 280 nm by a diode array UV absorption detector. […]

[4] = molecular target: T4, Trop-2 (Homo sapiens, UniProt P09758); assay: Conjugate binding to Trop-2 (BLI, GatorPrime); settings: biotinylated peptides immobilized, His-tagged Trop-2, 30° C., Langmuir 1:1 binding model
T4 construct: purchased AcroBiosystems TR2-H5223
T4 sequence (P09758 27-323): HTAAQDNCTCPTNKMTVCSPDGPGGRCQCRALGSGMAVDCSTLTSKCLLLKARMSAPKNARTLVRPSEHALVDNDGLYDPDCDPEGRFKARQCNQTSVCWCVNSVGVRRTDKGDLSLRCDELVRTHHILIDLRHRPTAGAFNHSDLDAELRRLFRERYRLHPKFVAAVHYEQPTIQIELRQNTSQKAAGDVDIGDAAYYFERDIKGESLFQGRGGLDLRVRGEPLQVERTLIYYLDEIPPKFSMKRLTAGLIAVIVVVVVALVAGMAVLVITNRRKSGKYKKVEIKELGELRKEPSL
Description: For analysis of peptide binding, a GatorPrime instrument was used utilizing SMAP probes. Biotinylated peptides of 1 μM were immobilized on the sensor using streptavidin-biotin chemistry at 25° C. in HBS-P+ buffer (10 mM HEPES, 150 mM NaCl, 0.05% Tween-20, pH 7.4). A dilution series of His-tagged Trop-2 (AcroBiosystems, TR2-H5223) was prepared in this buffer with a top peptide concentration at 100 nM and 6 further 3-fold dilutions. The BLI analysis was run at 30° C. with a 120 second association and 120 second dissociation. All data was analyzed using GatorLaunch software. Data was fitted using a Langmuir 1:1 binding model.

[5] = system: PSMA expressing cells (LnCap); assay: FACS binding to PSMA expressing cells; format: cell-based; settings: biotinylated compounds
Description: LnCap cells, 2e^6 cells/ml
SYTOX viability dye • (1) Washed cells with PBS once. • (2) Incubated cells with 5 ml of Accutase at 37 degrees for 2-5 minutes. Gently rocking the flask until the layer of cells pilling off • (3) Added 15 ml of PBS into flask and transferred to a 50 ml conical tube • (4) Spun down 1600 rpm 3 minutes • (5) Resuspended in 2 ml of PBS, and counted cells • (6) Adjusted cell density to 2e6 cells/ml with PBS and then added 100 uL/well to the plate and mixed well • (7) Spun down 1600 rpm 3 minutes • (8) Add 100 uL of compound/well respectively. Prepared serial dilute compound in PBS, 1 uM to 0.01 nM, 1:3 dilution, 10 point curve • (9) Incubated for 50 minutes total • (10) Washed wells with 150 uL PBS and spun down 1600 rpm 3 min and dumped • (11) Added SA-A647, 1:1000 dilution in FACS buffer, 100 ul/well to respective wells • (12) Incubated for 50 min on ice • (13) Washed with 200 uL PBS spun 1600 rpm 3 min dump • (14) Resuspended in 100 uL SYTOX, 1:1000 dilution in FACS buffer • (15) Acquired

T1 sequence (P15328 25-234): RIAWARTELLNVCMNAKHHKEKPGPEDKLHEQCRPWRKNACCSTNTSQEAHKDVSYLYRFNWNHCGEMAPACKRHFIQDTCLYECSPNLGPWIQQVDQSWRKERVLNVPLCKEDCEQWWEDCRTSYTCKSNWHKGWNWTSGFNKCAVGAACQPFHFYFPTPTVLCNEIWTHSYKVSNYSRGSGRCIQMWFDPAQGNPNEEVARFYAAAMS
T3 sequence (P02768 25-609): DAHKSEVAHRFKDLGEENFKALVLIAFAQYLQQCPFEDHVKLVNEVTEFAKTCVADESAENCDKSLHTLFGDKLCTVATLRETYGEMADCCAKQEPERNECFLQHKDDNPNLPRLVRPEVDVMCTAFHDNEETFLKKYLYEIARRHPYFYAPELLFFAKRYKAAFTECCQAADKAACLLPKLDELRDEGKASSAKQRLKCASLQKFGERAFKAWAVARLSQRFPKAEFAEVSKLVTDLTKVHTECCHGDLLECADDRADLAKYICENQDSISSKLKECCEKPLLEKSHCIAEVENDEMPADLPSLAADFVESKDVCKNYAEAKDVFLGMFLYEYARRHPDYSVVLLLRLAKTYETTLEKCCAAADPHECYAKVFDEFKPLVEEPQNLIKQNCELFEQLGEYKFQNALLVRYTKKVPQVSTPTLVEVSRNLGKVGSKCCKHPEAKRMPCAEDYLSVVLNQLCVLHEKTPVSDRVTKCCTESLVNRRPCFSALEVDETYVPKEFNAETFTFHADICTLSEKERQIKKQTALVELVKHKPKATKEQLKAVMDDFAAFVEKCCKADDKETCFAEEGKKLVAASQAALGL
T2 sequence (Q04609 whole entry): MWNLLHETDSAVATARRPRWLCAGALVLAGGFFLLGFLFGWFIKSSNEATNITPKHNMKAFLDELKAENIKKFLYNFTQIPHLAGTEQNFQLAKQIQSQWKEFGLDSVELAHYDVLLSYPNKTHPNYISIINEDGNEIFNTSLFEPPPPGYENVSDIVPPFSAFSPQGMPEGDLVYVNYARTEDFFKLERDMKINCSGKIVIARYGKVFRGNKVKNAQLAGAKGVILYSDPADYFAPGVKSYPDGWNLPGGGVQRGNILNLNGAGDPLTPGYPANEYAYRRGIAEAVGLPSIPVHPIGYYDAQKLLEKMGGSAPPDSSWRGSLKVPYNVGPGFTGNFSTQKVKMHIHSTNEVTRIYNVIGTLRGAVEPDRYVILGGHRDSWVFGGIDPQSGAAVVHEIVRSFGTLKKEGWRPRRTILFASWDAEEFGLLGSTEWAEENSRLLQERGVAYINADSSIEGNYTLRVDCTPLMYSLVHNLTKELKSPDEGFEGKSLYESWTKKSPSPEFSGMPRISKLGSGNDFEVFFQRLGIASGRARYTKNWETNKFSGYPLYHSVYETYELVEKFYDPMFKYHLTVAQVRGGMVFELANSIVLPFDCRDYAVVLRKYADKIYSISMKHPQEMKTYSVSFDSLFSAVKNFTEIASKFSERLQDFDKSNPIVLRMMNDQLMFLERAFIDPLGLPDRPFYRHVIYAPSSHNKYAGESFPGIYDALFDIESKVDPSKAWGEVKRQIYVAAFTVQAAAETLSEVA

Kd [1]: < 0.01 µM
Compound: CC(C)C[C@@H]1NC(=O)[C@H](CCCNC(=N)N)NC(=O)[C@H](C)NC(=O)CSC[C@@H](C(N)=O)NC(=O)[C@H](Cc2ccc(O)cc2)NC(=O)[C@H](Cc2c[nH]c3ccccc23)NC(=O)[C@H](Cc2ccc(O)cc2)N(C)C(=O)[C@H](Cc2ccc(O)cc2)N(C)C(=O)[C@H]([C@@H](C)O)NC(=O)[C@H](CC(=O)O)NC(=O)[C@H](Cc2ccc(O)cc2)NC(=O)[C@H](CC(=O)O)NC(=O)[C@H](Cc2ccccc2)N(C)C1=O [Compound P-10] ({CH2CO}-ARL[NMeF]DYDT[NMeY][NMeY]WYC-NH2; thioether N-13)

Kd [1]: < 0.01 µM
Compound: C[C@@H](O)[C@@H]1NC(=O)[C@H](CC(=O)O)NC(=O)[C@H](Cc2cccc(Cl)c2)NC(=O)[C@H](CC(=O)O)NC(=O)[C@H](Cc2ccccc2)N(C)C(=O)[C@H](C2CCCCC2)NC(=O)[C@H](CCCNC(=N)N)NC(=O)[C@H](CC(=O)O)NC(=O)CSC[C@@H](C(N)=O)NC(=O)[C@H](Cc2ccc(O)cc2)NC(=O)[C@H](Cc2c[nH]c3ccccc23)NC(=O)[C@H](Cc2ccc(O)cc2)N(C)C(=O)[C@H](Cc2ccc(O)cc2)N(C)C1=O [Compound P-11] ({CH2CO}-DR[Chg][NMeF]D[Phe(3-Cl)]DT[NMeY][NMeY]WYC-NH2; thioether N-13)

Kd [1]: < 0.01 µM
Compound: C[C@@H](O)[C@@H]1NC(=O)[C@H](CC(=O)O)NC(=O)[C@H](Cc2ccc(O)cc2)NC(=O)[C@H](CC(=O)O)NC(=O)[C@H](Cc2ccccc2)N(C)C(=O)[C@H](C2CCCCC2)NC(=O)[C@H](CCCNC(=N)N)NC(=O)[C@H](CC(=O)O)NC(=O)CSC[C@@H](C(N)=O)NC(=O)[C@H](Cc2ccc(O)cc2)NC(=O)[C@H](Cc2c[nH]c3ccccc23)NC(=O)[C@H](Cc2ccc(O)cc2)N(C)C(=O)[C@H](Cc2ccc(O)cc2)N(C)C1=O [Compound P-12] ({CH2CO}-DR[Chg][NMeF]DYDT[NMeY][NMeY]WYC-NH2; thioether N-13)

Kd [2]: < 0.01 µM
Compound: CC(C)[C@@H]1NC(=O)[C@H](CC(=O)O)NC(=O)[C@H](Cc2cccc(-c3ccccc3)c2)NC(=O)[C@H](Cc2c[nH]c3ccccc23)NC(=O)CSC[C@@H](C(N)=O)NC(=O)[C@H](CC(=O)O)NC(=O)[C@H](Cc2cccc(-c3ccccc3)c2)NC(=O)[C@H](Cc2c[nH]c3ccccc23)NC(=O)[C@H](CC2CCC2)NC(=O)[C@H](CC(=O)O)NC(=O)[C@H](CO)NC(=O)[C@H](CC(=O)O)NC1=O [Compound P-21] ({CH2CO}-W[Phe(3-Ph)]DVDSD[Cba]W[Phe(3-Ph)]DC-NH2; thioether N-12)

fraction unbound ([3]; plasma): 0.1 to 0.3
Compound: CC[C@H](C)[C@@H]1NC(=O)[C@H](Cc2cccnc2)NC(=O)[C@@H](Cc2ccccc2)NC(=O)CSC[C@@H](C(N)=O)NC(=O)[C@H]([C@@H](C)CC)NC(=O)[C@H]([C@@H](C)CC)NC(=O)[C@H](Cc2ccccc2)NC(=O)[C@H](Cc2ccc(O)cc2)N(C)C(=O)[C@H](CC(=O)O)NC(=O)[C@H](CO)NC(=O)[C@H](C)N(C)C(=O)[C@H](C)N(C)C(=O)[C@H](Cc2cccnc2)NC(=O)[C@H](CC(C)C)NC1=O [Compound P-30] ({CH2CO}-[dF][3Pal]IL[3Pal][NMeA][NMeA]SD[NMeY]FIIC-NH2; thioether N-14)

fraction unbound [3]: 0.1 to 0.3
Compound: CCCCC[C@@H]1NC(=O)CN(C)C(=O)[C@H](C(C)C)NC(=O)[C@H](Cc2c[nH]c3cc(Cl)ccc23)NC(=O)CNC(=O)[C@H]([C@@H](C)O)NC(=O)[C@H](Cc2ccccc2)N(C)C(=O)CNC(=O)[C@H](CCCNC(=N)N)NC(=O)[C@H](Cc2ccc(O)cc2)NC(=O)[C@H](Cc2cccc(Cl)c2)NC(=O)[C@H](C(C)C)NC(=O)[C@H](C)NC(=O)CSC[C@@H](C(N)=O)NC1=O [Compound P-31] ({CH2CO}-AV[Phe(3-Cl)]YRG[NMeF]TG[Trp(6-Cl)]V[Sar][Ahp(2)]C-NH2; thioether N-14)

Kd [4]: 0.01 to 1 µM
Compound: C-40: "Conjugate C-40 contains a monocyclic peptide P-40 of Table 3"; made from peptide-3 and DOTA-OSu ([dA]D[Bip]IYPA[Bip]SSES[NMeF]C[βAla][dK](PEG‑DOTA)[γGlu][γGlu]-NH2; bridge N-14; not fully specified (bridges)) [Compound C-40]

EC50 [5]: 0.1 to 1 µM
Compound: P-22 ([NMeF]DDSVWD[hPhe]YC-NH2; bridge N-10; not fully specified (N-terminus, bridges)) [Compound P-22]

Source: patent US20230158179A1, “RADIOPHARMACEUTICAL CONJUGATE COMPOSITIONS AND USES THEREOF” (RayzeBio, Inc., priority 2020, published 2023)
